{
  "source": "patent US20100197604A1",
  "about": "“USE OF PEPTIDE AS A THERAPEUTIC AGENT” (priority 2007, published 2010)",
  "key": {"[1]": {"tested_on": "HIV-1IIIB", "assay": "HIV-1 antiviral assay (CPE reduction, MTS)", "assay_type": "cell-based", "settings": "peptide 10 micrograms per ml, 6 days post-infection"}, "[2]": {"tested_on": "CEM-SS cells", "assay": "Cytotoxicity in CEM-SS cells (MTS cell viability)", "settings": "peptide 10 micrograms per ml"}, "[3]": {"tested_on": "Streptococcus pneumoniae", "assay_type": "cell-based", "settings": "5 micrograms per ml"}, "[4]": {"tested_on": "Pseudomonas aeruginosa", "assay_type": "cell-based", "settings": "5 micrograms per ml"}, "[5]": {"tested_on": "MRSA", "settings": "5 micrograms per ml"}, "[6]": {"tested_on": "HepG2-2.2.15 cells", "assay": "Cytotoxicity in HepG2-2.2.15 cells (dye uptake)", "settings": "test peptide 10 micrograms per ml"}, "[7]": {"tested_on": "MRC-5 cells (human embryonal lung fibroblasts)", "settings": "6 days"}},
  "data": [
    {"compound": "Cc1cn([C@H]2C[C@H](N=[N+]=[N-])[C@@H](CO)O2)c(=O)[nH]c1=O", "note": "[AZT]", "values": [
      {"measurement": "% CPE reduction in HIV-1 infected CEM-SS cells", "setting": "[1]", "value": 99, "unit": "%"},
      {"measurement": "% Cell viability", "setting": "[2]", "value": 97, "unit": "%"}
    ]},
    {"compound": "CC[C@H](C)[C@H](NC(=O)[C@H](Cc1ccc(O)cc1)NC(=O)[C@@H](NC(=O)[C@H](CCCNC(=N)N)NC(=O)[C@@H](N)CC(=O)O)C(C)C)C(=O)N[C@@H](Cc1c[nH]cn1)C(=O)N1CCC[C@H]1C(=O)N[C@@H](Cc1ccccc1)C(=O)O", "note": "[Angiotensin II]", "values": [
      {"measurement": "% inhibition", "setting": "[3]", "value": 100.0, "unit": "%"},
      {"measurement": "% inhibition", "setting": "[4]", "value": 0.0, "unit": "%"},
      {"measurement": "% inhibition", "setting": "[5]", "value": 0.0, "unit": "%"}
    ]},
    {"compound": "Nc1ccn([C@@H]2CS[C@H](CO)O2)c(=O)n1", "note": "[Compound 3TC, Lamivudine]", "values": [
      {"measurement": "% Cell viability", "setting": "[6]", "value": 95.8, "unit": "%"}
    ]},
    {"compound": "Nc1nc(O)c2ncn(COC(CO)CO)c2n1", "note": "[Ganciclovir]", "values": [
      {"measurement": "% Cell viability", "setting": "[7]", "value": 100, "unit": "%"}
    ]}
  ]
}
